Laboratory results taken from patent US9221875B2, “Amphiphilic peptides for treatment of keratitis” (Agency for Science, Technology and Research, priority 2013, dated 2015).
In brackets after ≈: the same amount, converted by molar mass. Like-named read-outs stand apart in the source and are kept apart here. Square brackets hold non-standard residues; d marks the D form. Peptide text beside a SMILES is read from it.

Experiments:
[1] = test system: 5 microorganisms tested (S. epidermidis, S. aureus, E. coli, P. aeruginosa, C. albicans); assay: Mean MIC over the panel and selectivity index (Example 1); format: cell-based
Description: Red blood cells suspension incubated with PBS was used as negative control.

F. solani = format: cell-based; details: 24 h
Description: The MICs of peptides were determined against the fungi C. albicans (American Type Culture Collection, ATCC) and F. solani (ATCC) by the broth microdilution method. […] F. solani, were cultured on sabouraud dextrose agar plates in incubator at 37° C. To collect conidia following incubation, conidia of F. solani species were harvested and standardized to 1×10^8 spores/ml before performing the experiments. Sabouraud dextrose broth (90 μL) was added to the wells of culture plates. […] The plates were incubated at 37° C. and examined macroscopically after 24 h for the growth of F. solani. Appropriate control wells without any treatment were included in the study. Peptide were considered to be active if the wells appeared clear without any visible growth of F. solani, and the results were expressed as MIC. The assay was performed in four replicates for each concentration.

C. albicans [2] = assay: In vitro killing kinetics; format: cell-based, Candida albicans
Description: The killing kinetics test was performed to evaluate the antimicrobial activities of peptides against C. albicans. Yeast solution was re-suspended in YMB (Difco) to achieve from 10^5 to 10^6 CFU mL^−1. […] Each dilution (20 μL) was plated on agar plate, and incubated 2 days. Surviving colonies were counted after incubation. An untreated inoculum group was used as a negative control. Tests were conducted in triplicates, and the results were presented as killing efficiency (%).

[3] = Stability testing, autoclave and 6 weeks at room temperature, MALDI-TOF MS; format: physicochemical; details: 121° C. 15 min, 2 mg/mL, no protection from light
Description: Peptides 1 and 2 were dissolved in HPLC-grade water at 2 mg/mL, subjected to a standard steam sterilization autoclave cycle at 121° C. for 15 min, and allowed to stand at room temperature for a period of 6 weeks. The integrity of the peptides was determined by evaluating their molecular weights via MALDI-TOF MS before and after treatment.

C. albicans biofilm = assay: Biofilm biomass assay, crystal violet; format: cell-based, Candida albicans; details: 500 mg/L, 24 h
Description: The biomass of the biofilms was estimated by a crystal violet staining assay. Briefly, the formed biofilms were first treated with the peptide for 24 h as described above. After aspirating the culture medium, the biofilms were rinsed once with PBS, fixed with methanol for 15 min at room temperature and stained with 100 μL of 0.1% (weight by volume) crystal violet for 10 min. The excess crystal violet dye was removed by rinsing the wells with DI water five times. The dye that is associated with the biofilm was extracted using 100 μL of 33% glacial acetic acid per well, and […] aliquot from each well was transferred to a new 96-well plate for quantification of absorbance at a wavelength of 570 nm using a microplate reader (TECAN, Switzerland). The relative amount of biomass remaining after peptide treatment was expressed as a percentage of the control treated with broth containing 10 vol % of water. Data represented mean±standard deviations of 4 replicates for each concentration.

S. epidermidis [4] = details: 18 h
S. aureus [5] = details: 18 h
E. coli [6] = details: 18 h
P. aeruginosa [7] = details: 18 h
C. albicans [8] = details: 42 h
C. albicans keratitis = assay: Contact lens-associated C. albicans keratitis mouse model
rabbit red blood cells = format: cell-based; details: red cells of rabbit, 1 h
trypsin and proteinase K = format: in vitro ADME
Description: One of the major factors limiting the clinical utility of AMPs lies in their instability to rapid degradation by proteases which are present abundantly in biological fluids and/or secreted by microorganisms. In order to evaluate the proteolytic stability of the designed β-sheet forming peptides, the D- and L-isoforms of the n=2 peptide sequence (IK8-all D or IK8-all L, respectively) were treated with the broad spectrum serine proteases, trypsin and proteinase K, for 6 h and evaluated their antimicrobial activities against S. aureus, E. coli and P. aeruginosa. […] The structural integrity of synthetic peptides following treatment with both proteases was also evaluated using MALDI-TOF mass spectroscopy. […] The cleavage sites of both enzymes for the IK8-all L peptide are illustrated in FIG. 19a with the mass spectra peaks assigned to the major fragments.

[9] = test system: five microorganisms tested (S. epidermidis, S. aureus, E. coli, P. aeruginosa, C. albicans); format: cell-based; details: 18 h
Description: After 18 h treatment of microorganisms with various concentrations of peptide (0.5×MIC, MIC and 2×MIC), the respective samples were subjected to a series of ten-fold dilutions and plated onto LB agar plates. The plates were then incubated overnight and counted for colony-forming units. A sample containing microbes treated with 10% (by volume) water was used as a control. Results are expressed as Log(CFU/mL) and as % Kill=[(cell count of control−survivor count of peptide-treated microbes)/cell count of control]×100.

[10] = test system: S. aureus and P. aeruginosa; assay: FE-SEM analysis of treated bacteria (Example 2); format: cell-based, Staphylococcus aureus, Pseudomonas aeruginosa; details: 125 mg L^−1, 2 h
Description: S. aureus and P. aeruginosa suspensions at ˜3×10^8 CFU mL^−1 (100 μL) were separately incubated with an equal volume of broth containing final concentrations of 10% (by volume) of HPLC water or 125 mg L^−1 of IK8-all D in a 96 well-plate for 2 h. Eight replicates of each condition was pooled into a microfuge tube, pelleted down at 4000 rpm for 5 min, and rinsed twice with PBS. The samples were then fixed with 4% formaldehyde at room temperature for 20 min, followed by rinsing with deionized water. Dehydration of the cells was performed using a series of graded ethanol solutions (35, 50, 75, 90, 95 and 100%). The samples were mounted on a copper tape, allowed to air-dry and sputter coated with platinum for imaging using a FE-SEM setup (JEOL JSM-7400F, Japan).

E. coli [11] = format: cell-based, Escherichia coli; details: end of the experiment (up to 20 passages)
S. aureus [12] = format: cell-based, Staphylococcus aureus; details: passage 20
P. aeruginosa [13] = assay: MBC against clinical isolates; format: cell-based; details: clinical isolate
C. neoformans = assay: MBC against clinical isolates; format: cell-based; details: clinical isolate
[14] = test system: clinically isolated drug resistant microorganisms; assay: MBC comparison over clinical isolates; format: cell-based; details: antibacterial activities
[15] = test system: intracellular S. aureus in RAW264.7 mouse macrophages; format: cell-based, Staphylococcus aureus; details: intracellular in RAW264.7 mouse macrophages, 8 h
Description: RAW264.7 cells were seeded at a density of 4×10^5 per well of a 12-well plate. Following an overnight incubation, the cells were infected for 1 h with 13.3 μL of processed bacteria (3.0×10^8 CFU mL^−1) to achieve a 10:1 multiplicity of infection. The cells were then rinsed twice with 1×PBS and incubated with 1 mL of fresh media containing 50 μg mL^−1 gentamicin for 45 min to eliminate extracellular bacteria. The media in each well were removed and the infected cells were incubated with fresh media containing 10% (by volume) water or various concentrations of IK8-all D (2, 3.9, 7.8, 15.6 and 31.3 mg L^−1) for up to 4 and 8 h. At the respective time points, the infected cells were trypsinized, rinsed twice with PBS and lyzed with 800 μL of sterile water with incubation at room temperature for 10 min, followed by 5 min sonication. The intracellular bacteria count was determined by plating serially diluted cultures onto LB agar and enumerated after 24 h.

in vitro = format: cell-based; details: mouse, RAW264.7 macrophage cells
Description: RAW264.7 and WI-38 cells were respectively seeded at a density of 1.5×10^4 and 1×10^4 per well of a 96-well plate. Following overnight incubation, the cells were treated with 1.0 to 125 mg L^−1 of IK8-all D for 48 h. Subsequently, the incubation media in each well were replaced with 100 μL of growth media and 10 μL of MTT solution (5 mg·ml^−1 in PBS) and the cells were incubated for 4 h at 37° C. according to the manufacturer's directions. Resultant formazan crystals formed in each well were solubilized using 150 μL of DMSO upon removal of growth media. A 100 μL aliquot from each well was then transferred to a new 96-well plate for determination of absorbance using a microplate spectrophotometer at wavelengths of 550 nm and 690 nm. Relative cell viability was expressed as [(A550−A690)sample/(A550−A690)control]×100%.

S. epidermidis [16] = details: 18 h; remark: listed apart in the source
S. aureus [17] = details: 18 h; remark: listed apart in the source
E. coli [18] = details: 18 h; remark: listed apart in the source
P. aeruginosa [19] = details: 18 h; remark: listed apart in the source
C. albicans [20] = test system: C. albicans
[21] = test system: Methicillin-resistant S. aureus; details: clinical isolate
[22] = test system: Vancomycin-resistant Enterococci; details: clinical isolate
[23] = test system: clinically isolated Mycobacterium tuberculosis
[24] = test system: 5 microorganisms tested (S. epidermidis, S. aureus, E. coli, P. aeruginosa, C. albicans); assay: Mean MIC over the panel and selectivity index (Example 2)
[25] = topical eye drops, peptides 3000 mg/L, amphotericin B 1000 mg/L

CC[C@H](C)[C@H](N)C(=O)N[C@@H](CCCCN)C(=O)N[C@H](C(=O)N[C@@H](CCCCN)C(=O)N[C@H](C(=O)N[C@@H](CCCCN)C(=O)N[C@H](C(=O)N[C@@H](CCCCN)C(N)=O)[C@@H](C)CC)[C@@H](C)CC)[C@@H](C)CC [(IKIK)2-NH2] (H-IKIKIKIK-NH2; N-terminus assumed)
GM, geometric mean of MIC values for the 5 microorganisms tested [1]: 38.3 µg/mL
MIC F. solani (F. solani): 31.3 µg/mL (≈ 31.9 µM)
time after which most fungi were killed (C. albicans [2]; at 2×MIC and 4×MIC): 1 h
time after which most fungi were killed (C. albicans [2]; at MIC): 4 h
molecular weight after autoclaving and 6 weeks at room temperature in water [3]: remained unchanged with no degradation products observed
biomass of C. albicans biofilm (C. albicans biofilm): decreased significantly
MIC S. epidermidis (S. epidermidis [4]): 2.0 µg/mL (≈ 2.04 µM)
MIC S. aureus (S. aureus [5]): 125 µg/mL (≈ 127 µM)
MIC E. coli (E. coli [6]): 31.3 µg/mL (≈ 31.9 µM)
MIC P. aeruginosa (P. aeruginosa [7]): 31.3 µg/mL (≈ 31.9 µM)
MIC C. albicans (C. albicans [8]): 2.0 µg/mL (≈ 2.04 µM)
fungal cells eradicated from the biofilms compared to the untreated control group (C. albicans keratitis; C. albicans counts in mice cornea, agar plating): ~90%
depth of hyphal invasion into the cornea, PAS histology (C. albicans keratitis; [25]): reduced the maximal depth of hyphal invasion
resolution of the keratitis infection (eye appearance) (C. albicans keratitis; [25]): significant resolution of the keratitis infection
clinical scores of mice corneas (slit lamp) (C. albicans keratitis; topical eye drops, peptides 3000 mg/L, amphotericin B 1000 mg/L, P<0.01): significantly lower than that in the control group

CC[C@@H](C)[C@@H](N)C(=O)N[C@H](CCCNC(=N)N)C(=O)N[C@@H](C(=O)N[C@H](CCCCN)C(=O)N[C@@H](C(=O)N[C@H](CCCNC(=N)N)C(=O)N[C@@H](C(=O)N[C@H](CCCCN)C(N)=O)[C@H](C)CC)[C@H](C)CC)[C@H](C)CC [IK8-all D, irikirik-NH2] (H-[dI][dR][dI][dK][dI][dR][dI][dK]-NH2; N-terminus assumed)
HC10, haemolysis concentration 10%: lowest peptide concentration that induces ≧10% haemolysis (rabbit red blood cells): 1750 mg/L
antimicrobial activity after protease treatment (trypsin and proteinase K): retained its antibacterial activities
structural integrity after protease treatment, MALDI-TOF MS (trypsin and proteinase K): remained intact
killing efficiencies [9]: > 99.9%
log reductions in colony counts [9]; 2: more than 3 log
surface morphology under FE-SEM [10]: significant membrane damage and corrugation
MICn/MIC0 (E. coli [11]): 1
MICn/MIC0, fold increase in MIC (S. aureus [12]): 1
MBC P. aeruginosa (P. aeruginosa [13]): 15.6 µg/mL (≈ 15 µM)
MBC C. neoformans (C. neoformans): 7.8 µg/mL (≈ 7.51 µM)
folds reduction in MBCs compared with the L-enantiomer [14]: 4-8 folds
log reductions in intracellular S. aureus colony counts compared to the control [15]: 1.2-1.5 log
viability at 48 h (in vitro): > 80%
MIC S. epidermidis (S. epidermidis [16]): 2.0 µg/mL (≈ 1.93 µM)
MIC S. aureus (S. aureus [17]): 3.9 µg/mL (≈ 3.76 µM)
MIC E. coli (E. coli [18]): 3.9 µg/mL (≈ 3.76 µM)
MIC P aeruginosa (P. aeruginosa [19]): 7.8 µg/mL (≈ 7.51 µM)
MIC C. albicans (C. albicans [20]): 3.9 µg/mL (≈ 3.76 µM)
MBC Methicillin-resistant S. aureus [21]: 3.9 µg/mL (≈ 3.76 µM)
MBC A. baumanni (A. baumanni): 31.3 µg/mL (≈ 30.1 µM)
MBC Vancomycin-resistant Enterococci [22]: 3.9 µg/mL (≈ 3.76 µM)
MIC M. tuberculosis ([23]; strain number 1140): 15.6 µg/mL (≈ 15 µM)
MIC M. tuberculosis ([23]; strain number 1146): 15.6 µg/mL (≈ 15 µM)
GM, geometric mean of MIC values for the 5 microorganisms tested [24]: 4.3 µg/mL
fold reduction in MIC values compared with the L-enantiomer ([24]; against the various bacteria): 2-16 fold
